Values after ≈ are worked out from the molar mass of the structure shown. Values joined by “and” are separate entries in the source; they are usually repeats but may differ in a detail not shown here. Identical values can stand only once. Like-named read-outs stand apart in the source and are kept apart here.
Experiments:
[1] = target: T1, rat lens aldose reductase (rAR) (Rattus norvegicus, UniProt P07943); test: Rat lens aldose reductase (rAR) inhibition, DL-glyceraldehyde substrate, NADPH decrease at 340 nm; format: biochemical; details: for IC50: Table 2 experiment, read-out: IC50 (rAR), isolated constituents (converted)
T1 construct: The rat lens homogenate was prepared according to the method of Hayman and Kinoshita with some modifications; from tissue; host or cells: lenses of Sprague-Dawley rats (homogenate supernatant)
Experimental: The rat lens homogenate was prepared according to the method of Hayman and Kinoshita with some modifications. Non-cataractous transparent lenses were pooled and homogenate was prepared in 0.1 M phosphate buffer saline (pH 6.2). After centrifugation at 10,000 rpm for 20 min in a refrigerated centrifuge, the supernatant, which was then collected and as the rAR, all procedures were carried out at 4 °C.
Each 1.0 mL cuvette contained equal units of the enzyme, 0.10 M sodium phosphate buffer (pH 6.2), 0.3 mM NADPH, with or without 10 mM of the substrate and an inhibitor [10, 36].

[2] = ABTS^+ radical assay (antioxidant)
Experimental: The method of Re et al., [39] was used with slight modifications. ABTS diammonium salt (2 mM) and potassium persulfate (3.5 mM) were mixed, diluted in distilled water and kept in the dark at room temperature for 24 h before use. After addition of ABTS^+ solution to 10 µL of antioxidant compounds were recorded at after 10 min reaction. […] Trolox was used as positive control.

[3] = target: T2, recombinant human aldose reductase (rhAR) (Homo sapiens, UniProt P15121); test: Kinetic analysis of aldose reductase inhibition (Lineweaver-Burk plots); format: biochemical
T2 construct: purchased Wako Pure Chemical Industries (Osaka, Japan)
Experimental: Reaction mixtures consisted of 0.1 M potassium phosphate, 0.16 mM NADPH, […] of recombinant human aldose reductase (rhAR) with varied concentrations of substrate DL-glyceraldehyde and AR inhibitor in a total volume of 200 µL. Concentrations were ranged from 0.1 to 1 mM for DL-glyceraldehyde, from 0.1 to 1 mM for active compound. Recombinant human aldose reductase activity was assayed spectrophotometrically by measuring the decrease in absorption of NADPH at 340 nm after substrate addition using a Bio Tek Power Wave XS spectrophotometer (Bio Tek Instruments, Winooski, VT, USA).

rat erythrocyte = test: Galactitol accumulation in rat erythrocytes incubated with galactose; format: cell-based; details: 30 mM galactose; for Rat Erythrocyte Galactitol Content: 5 µg/mL compound, control 86.70 ± 1.61; for decrease of galactitol accumulation in rat erythrocyte: 5 µg/mL
Experimental: Blood sample was collected in heparin containing polypropylene tube from 10-week-old male rats. For sugar and sugar alcohol analysis, erythrocytes from heparinized blood were separated from the plasma and buffy coat by centrifuging at 2000× g for 10 min. The cells were washed thrice with normal saline (0.9% NaCl) at 4 °C. In the final washing, the cells were centrifuged at 2000× g for 10 min to obtain a consistently packed cell preparation. The packed cells (1 mL) were then incubated in a Krebs-Ringer bicarbonate buffer (pH 7.4) containing 30 mM galactose in the presence or absence of samples at 37 °C in 5% CO2 for 3 h. The erythrocytes were washed with cold saline by centrifuging at 2000× g for 10 min, precipitated by adding 6% of cold perchloric acid (3 mL), and centrifuged again at 2000× g for 10 min. The supernatant was neutralized with 2.5 M K2CO3 at 4 °C and used for galactitol determination. HPLC analysis for sugar and sugar alcohol in blood was performed with this supernatant of red blood cell homogenate after being benzoylated.

rat lenses = test: Galactitol accumulation in cultured isolated rat lenses (ex vivo); format: cell-based; details: for Galactitol Content µg/lens Wet Weight (g): 5 µg/mL compound, control 250.47 ± 5.01; for inhibition at 5 µg/mL: Rattus norvegicus, 144 h, read-out: inhibition of galactitol accumulation in isolated rat lenses
Experimental: Lenses isolated from 10-week-old male rats were cultured for 6 days in TC-199 medium that contained 15% fetal bovine serum 100 units/mL penicillin and 0.1 mg/mL streptomycin under sterile conditions in an atmosphere of 5% CO2 and 95% air at 37 °C. Samples were dissolved in dimethyl sulfoxide. The lenses were divided into five groups and cultured in medium containing 5 mM glucose, 30 mM galactose and rosmarinic acid or caffeic acid ethylene ester. Each lens was placed in well containing 1.0 mL of medium. Galactitol was determined by HPLC after its derivatization by reaction with benzoic acid to a fluorescent compound [37].

[4] = Table 2, read-out: Inhibition (%) of rAR
[5] = Table 1, read-out: Aldose Reductase Inhibition (%)

Compound	inhibition at 10 µg/mL ([1]; Table 2) [%]	Inhibition (%) of ABTS^+ ([2]; Table 5, 16.67 µg/mL) [%]	inhibition at 0.5 µg/mL [1, 4] [%]	inhibition at 1 µg/mL [1, 4] [%]	inhibition at 5 µg/mL ([1]; Table 2) [%]	IC50 [1]	IC50 ([2]; Table 5) [µM]	IC50 (ABTS^+) ([2]; Table 5) [µg/mL]	Inhibition (%) of ABTS^+ ([2]; Table 5, 1.67 µg/mL) [%]	Inhibition (%) of ABTS^+ ([2]; Table 5, 3.33 µg/mL) [%]	Inhibition (%) of ABTS^+ ([2]; Table 5, 8.33 µg/mL) [%]	other results
O=c1cc(-c2ccc(O)cc2)oc2c([C@@H]3O[C@H](CO)[C@@H](O)[C@H](O)[C@H]3O)c(O)cc(O)c12 [Compound 4, vitexin]	48.5 ± 0.87	46.17 ± 2.65	–	–	–	–	–	–	–	–	–	–
Cc1c(C)c2c(c(C)c1O)CCC(C)(C(=O)O)O2 (centres unmarked) [Trolox, reference compound]	–	–	–	–	–	–	–	–	–	–	–	IC50 ([2]; Table 4): 11.49 ± 0.04 µM; IC50 (ABTS^+) ([2]; Table 4): 2.87 ± 0.01 µg/mL (≈ 11.5 µM); Inhibition (%) of ABTS^+ ([2]; Table 4, 1.67 µg/mL): 27.07 ± 1.15%; Inhibition (%) of ABTS^+ ([2]; Table 4, 3.33 µg/mL): 57.40 ± 2.03%; Inhibition (%) of ABTS^+ ([2]; Table 4, 8.33 µg/mL): 92.92 ± 0.06%
O=c1cc(-c2ccc(O)c(O)c2)oc2c([C@@H]3O[C@H](CO)[C@@H](O)[C@H](O)[C@H]3O)c(O)cc(O)c12 [Compound 2, orientin]	–	–	35.3 ± 0.36	64.57 ± 0.52	94 ± 0.98	1.65 µM	12.5 ± 0.95	5.59 ± 0.42 (≈ 12.5 µM)	17.56 ± 2.21	31.76 ± 3.19	72.55 ± 4.10	type of inhibition ([3]; Lineweaver-Burk plots, Km unchanged, Vmax decreased): noncompetitive inhibitors; Ki ([3]; from secondary Lineweaver-Burk plots, DL-glyceraldehyde 0.1-1 mM, read-out: inhibitory constant (Ki)): 3.23 µM; Rat Erythrocyte Galactitol Content (rat erythrocyte): 72.72 ± 0.98 µM; decrease of galactitol accumulation in rat erythrocyte (rat erythrocyte): 16.1%; Galactitol Content µg/lens Wet Weight (g) (rat lenses; 30 mM galactose, 6 days): 227.89 ± 4.52 µg/lens Wet Weight (g); inhibition at 5 µg/mL (rat lenses): 9.1%; effect on polyol accumulation in rat lenses (rat lenses; conclusion statement): prevented the accumulation of sorbitol in rat lenses
O=c1c(O)c(-c2ccc(O)c(O)c2)oc2cc(O)cc(O)c12 [Quercetin, quercetin, reference compound]	–	–	26.3 ± 0.59	48.6 ± 1.44	81.14 ± 0.81	–	–	–	–	–	–	inhibition at 0.5 µg/mL [1, 5]: 31.62 ± 0.09%; inhibition at 1 µg/mL [1, 5]: 48.9 ± 0.51%; inhibition at 2.5 µg/mL [1, 5]: 69.6 ± 0.72%; Rat Erythrocyte Galactitol Content (rat erythrocyte): 45.17 ± 0.81 µM; decrease of galactitol accumulation in rat erythrocyte (rat erythrocyte): 47.9%; Galactitol Content µg/lens Wet Weight (g) (rat lenses; 30 mM galactose, 6 days): 241.07 ± 4.57 µg/lens Wet Weight (g); inhibition at 5 µg/mL (rat lenses; 5 µg/mL, 30 mM galactose, 6 days): 3.8%; IC50 ([2]; Table 4): 3.2 ± 0.12 µM; IC50 (ABTS^+) ([2]; Table 4): 0.97 ± 0.04 µg/mL (≈ 3.21 µM); Inhibition (%) of ABTS^+ ([2]; Table 4, 0.33 µg/mL): 22.98 ± 3.55%; Inhibition (%) of ABTS^+ ([2]; Table 4, 0.83 µg/mL): 42.49 ± 3.39%; Inhibition (%) of ABTS^+ ([2]; Table 4, 1.67 µg/mL): 81.36 ± 1.75%
O=c1cc(-c2ccc(O)cc2)oc2cc(O)c([C@@H]3O[C@H](CO)[C@@H](O)[C@H](O)[C@H]3O)c(O)c12 [Compound 5, isovitexin]	76.59 ± 0.74	44.40 ± 4.91	–	23.3 ± 0.25	60.3 ± 0.61	7.35 µM and 7.36 µM	–	–	–	–	–	–
O=C(/C=C/c1ccc(O)c(O)c1)O[C@H](Cc1ccc(O)c(O)c1)C(=O)O [Compound 8, rosmarinic acid]	–	–	18.3 ± 0.19	62.79 ± 0.6	87.33 ± 0.87	–	19.2 ± 1.69	6.91 ± 0.61 (≈ 19.2 µM)	16.20 ± 3.85	23.61 ± 2.27	60.25 ± 4.66	–
N[C@@H](Cc1c[nH]c2ccccc12)C(=O)O [Compound 1, tryptophan]	20 ± 2.01	37.51 ± 2.93	–	–	–	–	–	–	–	–	–	–
O=c1cc(-c2ccc(O)c(O)c2)oc2cc(O[C@@H]3O[C@H](CO)[C@@H](O)[C@H](O)[C@H]3O)cc(O)c12 [Compound 6, luteolin-7-O-glucoside]	76.2 ± 0.77	–	–	19.1 ± 0.21	61.88 ± 0.6	7.47 µM	17.8 ± 1.51	8.00 ± 0.68 (≈ 17.8 µM)	13.49 ± 1.09	22.66 ± 2.47	52.11 ± 3.98	–
COc1cc(C=CC(=O)OC2OC(CO)C(O)C(O)C2O)ccc1O [Compound 9, 1-O-feruloyl-D-glucoside]	4.06 ± 0.4	59.10 ± 2.55	–	–	–	–	37.4 ± 0.64	13.31 ± 0.23 (≈ 37.4 µM)	–	13.51 ± 1.62	35.36 ± 1.54	–
O=C(C=Cc1ccc(O)c(O)c1)OC1OC(CO)C(O)C(O)C1O [Compound 10, 1-O-caffeoyl-D-glucoside]	73.2 ± 0.99	–	–	–	55.6 ± 0.78	14.1 µM	23.5 ± 1.43	8.04 ± 0.49 (≈ 23.5 µM)	14.07 ± 0.39	29.84 ± 1.19	50.87 ± 1.30	inhibition at 2.5 µg/mL [1, 4]: 24.7 ± 0.36%
C[C@@H]1O[C@@H](OC[C@H]2O[C@@H](Oc3cc(O)c4c(=O)cc(-c5ccc(O)c(O)c5)oc4c3)[C@H](O)[C@@H](O)[C@@H]2O)[C@H](O)[C@H](O)[C@H]1O [Compound 7, luteolin-7-O-rutinoside]	–	79.82 ± 0.67	29.9 ± 0.3	40.31 ± 0.4	72.7 ± 0.73	2.59 µM	15.8 ± 0.8	9.38 ± 0.47 (≈ 15.8 µM)	–	21.44 ± 1.46	49.55 ± 3.91	–
